Experimental data published in patent publication US20250066769A1, “METHODS OF SCREENING AND TREATING FRAGILE X SYNDROME” (YISSUM RESEARCH DEVELOPMENT COMPANY OF THE HEBREW …, priority 2021, published 2025).

Legend:
[1] = tested on: FMR1 expression in FXS-iPSCs; assay: RT-PCR analysis of FMR1 expression in FXS-iPSCs; type: cell-based, human; conditions: for FMR1 transcription levels (RT-PCR): lentiviral Cas9 and two sgRNAs per candidate gene, vs basal level
Description: Cell lines: Throughout the study the following cell lines were used: The FXS-iPSCs cell line A52. Haploid hpESCs-hPES10. CSES7 and CSES9 hESCs and their derivatives were used as a reference for wild type expression. 293T cells were used for the construction of lentiviral constructs.
RNA isolation and reverse transcription: Total RNA was isolated using NucleoSpin RNA Plus kit (Macherey-Nagel) and reverse transcribed using the qScript® cDNA Synthesis Kit. Quantitative real time PCR (qRT-PCR) was performed using SYBR Green qPCR Supermix (Applied Biosystems) and analyzed with the 7300 real-time PCR system (Applied biosystems). FMR1 expression was assessed using specific primers, which amplified a 147 bp product spanning exons 5-6 of FMR1. GAPDH was used for normalization.
DNMT1 disruption assay: As human pluripotent stem cells require DNA methylation for their viability, heterogenous DNMT1-mutant populations of FXS-iPSCs were generated by infecting the cells with a lentiCRISPR v2 lentiviral vector containing an sgRNA that targets the open reading frame of DNMT1. The sgRNA sequence was cloned into the lentiCRISPR v2 plasmid and transformed into Stb13 chemically competent bacteria. Following plasmid isolation, 293T cells were transfected with sgRNA-containing lentiCRISPR V2, psPAX2, and pCMV-VSV-G plasmids at a ratio of 13.3:10:6.6, respectively, in the presence of polyethylenimine ‘Max’ (Polysciences). Lentiviral particle-containing supernatant was collected ˜65 hours after transfection and filtered using […] filters. For transduction, FXS-iPSCs were trypsinized, centrifuged, and suspended in embryonic stem cell media supplemented with 10 μM ROCK inhibitor (Y27632) and 8 μg/ml polybrene (Sigma). The viruses were added to the cell suspension, and the cells were plated on MEFs overnight. After ˜36 hours, the cells' medium was replaced with puromycin-containing medium ([…], Sigma). After 2-14 days selection with puromycin, cells were harvested for RNA extraction. To confirm DNMT1 mutagenesis in the transduced cells, qRT-PCR primers that were designed to have their 3′ ends around the Cas9 cut-site of DNMT1 were used to analyze the abundance of wild-type copies to DNMT1 transcripts.
Generation of gene knockouts: Ten candidate genes were targeted using a lentiviral construct containing Cas9 and a specific sgRNA (Table 2). Two sgRNAs were used to target each candidate gene. Each sgRNA sequence was inserted into a separate lentiCRISPR v2 vector (Addgene cat. No. 52961). As a control, a lentiCRISPR v2 vector without any sgRNA (empty vector) was used. Lentiviruses were produced using 293T cells cultured in 10 cm plates using transfection with the sgRNA-containing-lentiCRISPR v2 construct, psPAX2 (Addgene cat. No. 12260) and pCMV-VSV-G (Addgene cat. No. 8454) at a ratio of 5.32:4:2.64 ratio, in the presence of polyethylenimine “Max” (PEI-Max) (Polysciences) at a 1:2 ratio of DNA to PEI-Max. After 24 hours, the medium was exchanged with standard hESC medium, which was harvested 60-65 hours following transfection, centrifuged, and filtered through 0.45 μm cellulose acetate filters (Millipore). The filtered supernatant was frozen in aliquots at −70° C. For transduction, FXS-iPSCs or haploid human ESCs were trypsinized with TrypLE™ Select, centrifuged, and resuspended in hESC medium supplemented with 8 μg ml-1 polybrene (Sigma) and 10 μM ROCK inhibitor (Y27632). Thawed or fresh viruses were added to the cell suspension, followed by plating the cells on feeder layer MEFs. […]

[2] = tested on: methylated pFMR1-(240) CGG-EGFP construct in haploid hESCs; assay: methylated pFMR1-(240) CGG-EGFP reporter transfection in mutant haploid hESCs, flow cytometry; type: cell-based, human; conditions: Cas9 + two sgRNAs per gene, compared to Cas9 without sgRNA
Description: In vitro DNA methylation: pFMR1-n (CGG)-eGFP construct was methylated using an M.SssI CpG methyltransferase (NEB) according to manufacturer's recommendations. SAM concentration was adjusted to 640 μM. DNA was extracted using ethanol precipitation.
Library transfection: 10 μM ROCK inhibitor (Y27632) was added 1 hour prior to trypsinization and transfection. Library cells were harvested using TrypLE™ Select Enzyme solution (Thermo Fisher Scientific, Cat #12563029) in a single cell state. Following the first centrifugation, cells were re-suspended twice with DMEM/F12 and centrifuged again before incubation with the plasmid DNA. Transfection of the methylated pFMR1-CGG (240)-EGFP construct was performed using the Xtreme Gene9 reagent (Roche), using standard conditions. 48 hours following transfection, cells were washed with PBS, harvested using TrypLE™ Select, resuspended in PBS supplemented with 15% fetal bovine serum (FBS) and filtered through a 70-μm cell strainer (Corning) and sorted using BD FACDAria III. Transfection efficiency was assessed using the simultaneous transfection of control haploid hESCs with an unmethylated pFMR1-CGG (240)-EGFP construct.
Generation of gene knockouts: Ten candidate genes were targeted using a lentiviral construct containing Cas9 and a specific sgRNA (Table 2). Two sgRNAs were used to target each candidate gene. Each sgRNA sequence was inserted into a separate lentiCRISPR v2 vector (Addgene cat. No. 52961). As a control, a lentiCRISPR v2 vector without any sgRNA (empty vector) was used. Lentiviruses were produced using 293T cells cultured in 10 cm plates using transfection with the sgRNA-containing-lentiCRISPR v2 construct, psPAX2 (Addgene cat. No. 12260) and pCMV-VSV-G (Addgene cat. No. 8454) at a ratio of 5.32:4:2.64 ratio, in the presence of polyethylenimine “Max” (PEI-Max) (Polysciences) at a 1:2 ratio of DNA to PEI-Max. After 24 hours, the medium was exchanged with standard hESC medium, which was harvested 60-65 hours following transfection, centrifuged, and filtered through 0.45 μm cellulose acetate filters (Millipore). […]

Row | Substance | FMR1 expression (RT-PCR) ([1]; 5 μM, 4 days) | methylated construct expression (relative GFP fluorescence) [2] | FMR1 transcription levels (RT-PCR) [1] | FMR1 expression (RT-PCR) ([1]; lentiviral sgRNA + Cas9, collected 7-14 days after start of selection, vs control FXS-iPSCs)
1 | 5′-aza-2′-deoxycytidine [5-azadC, reference compound] | reactivation of FMR1 expression |  |  | 
2 | C6orf57: lentiviral Cas9 constructs with two sgRNAs targeting C6orf57 (guide 1 GAGACCCAGCTAAGCAACCA; guide 2 TCCCAATCTCCATATCGGGT; expressed or natural sequence; listed as Homo sapiens) |  | highest levels of methylated construct expression | some increase above basal FMR1 transcription levels | 
3 | SMARCD1: lentiviral Cas9 constructs with two sgRNAs targeting SMARCD1 (guide 1 GGAGCCGGGCCCATTCGCAC; guide 2 GCCACTACCCAGGAGACCGA; expressed or natural sequence; listed as Homo sapiens) |  | highest levels of methylated construct expression | some increase above basal FMR1 transcription levels | 
4 | ZNF217: lentiviral Cas9 constructs with two sgRNAs targeting ZNF217 (guide 1 GTGGTGAACGGATCGAGCTG; guide 2 TCTGGATGAAAATGGAGCCG; expressed or natural sequence; listed as Homo sapiens) |  | highest levels of methylated construct expression | some increase above basal FMR1 transcription levels | 
5 | sgRNA targeting DNMT1: lentiCRISPR v2 vector with Cas9 and sgRNA GAGGCCAGAAGGAGGAACCG targeting DNMT1 (listed as Homo sapiens) |  |  |  | reactivation of FMR1 expression
